Assay results as given in ChEMBL document CHEMBL1121541, “Novel analogues of enkephalin: indentification of functional groups required for biological activity” (J Med Chem, 1980).

Organism: Cavia porcellus
Test: Ability to Inhibit amplitude of the electrically stimulated guinea pig ileum by 50%; Inactive at 3.2E-6 concentration; call rule not given here
Format: functional, organism-based

Structure (SMILES)	IC50
CC(C)[C@H](NC(=O)CNC(=O)[C@@H](N)Cc1ccc(O)cc1)C(=O)NC1CCc2ccccc21 (some centres undefined)	Not Active

System: not listed separately
Test: Ratio of IC50 of [D-Ala2, D-Leu5]-enkephalin to that of the compound, in the guinea pig ileum assay
Format: functional

Structure (SMILES)	Ratio
C[C@@H](NC(=O)[C@@H](N)Cc1ccc(O)cc1)C(=O)NCC(=O)NC1CCc2ccccc21 (some centres undefined)	0.47

Organism: Cavia porcellus
Test: Ability to Inhibit amplitude of the electrically stimulated guinea pig ileum by 50%; Inactive at 2.19E-4 concentration
Format: functional, organism-based

Structure (SMILES)	IC50
NCCc1ccc(O)cc1 [TYRAMINE]	Not Active

Organism: Cavia porcellus
Test: Ability to Inhibit amplitude of the electrically stimulated guinea pig ileum by 50%; Inactive at 1.7E-6 concentration
Format: functional, organism-based

Structure (SMILES)	IC50
CC(C)C[C@@H](NC(=O)[C@@H](Cc1ccccc1)NC(=O)CNC(=O)C(C)NC(=O)[C@](C)(N)Cc1ccc(O)cc1)C(=O)O (stereo in doubt)	Not Active

Organism: Cavia porcellus
Test: Ability to Inhibit amplitude of the electrically stimulated guinea pig ileum by 50%
Format: functional, organism-based

Structure (SMILES)	IC50
N[C@@H](Cc1ccc(O)cc1)C(=O)NCC(=O)NCC(=O)NC1CCc2ccccc21 (some centres undefined)	2600 nM

Organism: Cavia porcellus
Test: Ability to Inhibit amplitude of the electrically stimulated guinea pig ileum by 50%; Inactive at 2.71E-6
Format: functional, organism-based

Structure (SMILES)	IC50
CC(NC(=O)[C@@H](N)Cc1ccc(O)cc1)C(=O)NCC(=O)NC1Cc2ccccc2C1 (stereo in doubt)	Not Active

Organism: Cavia porcellus
Test: Inhibition of contraction of electrically stimulated guinea pig ileum
Format: functional, organism-based

Structure (SMILES)	IC50
C[C@@H](NC(=O)[C@@H](N)Cc1ccc(O)cc1)C(=O)NCC(=O)OCc1ccccc1	220 nM
CN1CC[C@]23c4c5ccc(O)c4O[C@H]2[C@@H](O)C=C[C@H]3[C@H]1C5	1.6 nM
CSCC[C@H](NC(=O)[C@H](Cc1ccccc1)NC(=O)CNC(=O)[C@H](NC(=O)[C@@H](N)Cc1ccc(O)cc1)C(C)C)C(N)=O	16 nM
CC(C)[C@H](NC(=O)[C@@H](N)Cc1ccc(O)cc1)C(=O)NCC(=O)NC1CCc2ccccc21 (some centres undefined)	1400 nM
CC(C)[C@H](NC(=O)CNC(=O)[C@@H](N)Cc1ccc(O)cc1)C(=O)NC1CCc2ccccc21 (some centres undefined)	9030 nM
CCOC(=O)CC[C@H](N)C(=O)N[C@H](C)C(=O)NCC(=O)N[C@@H](Cc1ccccc1)C(=O)N[C@H](CC(C)C)C(=O)O	7330 nM
C[C@@H](NC(=O)[C@@H](N)Cc1ccc(O)cc1)C(=O)NCC(=O)NC1CCc2ccccc21 (some centres undefined)	40 nM
CC(C)[C@H](NC(=O)[C@](C)(Cc1ccccc1)NC(=O)CNC(=O)[C@@H](C)NC(=O)[C@@H](N)Cc1ccc(O)cc1)C(=O)O	125 nM
CC(NC(=O)[C@@H](N)Cc1ccc(O)cc1)C(=O)NCC(=O)NCC1CC1 (stereo in doubt)	480 nM
CC(NC(=O)[C@@H](N)Cc1ccc(O)cc1)C(=O)NCC(=O)N[C@@](C)(Cc1ccccc1)C(=O)O (stereo in doubt)	75 nM
CC(NC(=O)[C@@H](N)Cc1ccc(O)cc1)C(=O)NCC(=O)NC1Cc2ccccc2C1 (stereo in doubt)	9010 nM
CC(C)CC(NC(=O)[C@H](CC1CCCCC1)NC(=O)CNC(=O)C(C)NC(=O)[C@@H](N)Cc1ccc(O)cc1)C(=O)O (stereo in doubt)	9 nM
CC(NC(=O)[C@@H](N)Cc1ccc(O)cc1)C(=O)NCC(=O)NCc1ccccc1 (stereo in doubt)	140 nM
CC(C)C[C@@H](NC(=O)[C@](C)(Cc1ccccc1)NC(=O)CNC(=O)C(C)NC(=O)[C@@H](N)Cc1ccc(O)cc1)C(=O)O (stereo in doubt)	42 nM
CC(NC(=O)[C@@H](N)Cc1ccc(O)cc1)C(=O)NCC(=O)O (stereo in doubt)	24400 nM
CC(NC(=O)[C@@H](N)Cc1ccc(O)cc1)C(=O)NCC(=O)NCC1CCC1 (stereo in doubt)	320 nM
CC(NC(=O)[C@@H](N)Cc1ccc(O)cc1)C(=O)NCC(=O)NCCc1ccccc1 (stereo in doubt)	98 nM
CC(C)C[C@@H](NC(=O)[C@H](Cc1ccccc1)NC(=O)CNC(=O)[C@@H](C)NC(=O)[C@@H](N)Cc1ccc(O)cc1)C(=O)O [DADLE]	17 nM
